Structures are written as SMILES.

As a reminder, the melting point is the temperature of the solid-liquid transition. As to `CC(C)NC(=O)NCc1ccc(C(=O)O)cc1`, the melting point is 168 to 170 °C.
`COc1ccc(N2CC(C(=O)O)CC2=O)cc1` (stereo not given) came in with a melting point of 171 to 173 °C.
The value for `O=C(O)c1ccon1` was 143 to 145 °C; that for `COc1ccccc1NS(=O)(=O)c1cc(N)ccc1N1CCOCC1` was 197 to 199 °C.
Compound `N#Cc1ccc(NCCC(N)=O)c(F)c1` yielded a melting point of 156 to 158 °C.
The value for `O=C(O)c1cc2ccccc2c2cccnc12` was 200 to 202 °C; that for `O=C(O)CCc1cc(Br)ccc1F` was 84 to 86 °C.
On to `CS(=O)(=O)c1ccc(C(=O)c2ccccc2)cc1`, for which the melting point lay in the range of 131 to 133 °C.
Consider `O=C(O)C1(Cc2nc3ccccc3s2)CCCCC1`, for which the melting point fell in the range of 170 to 172 °C.
The compound `O=C(O)CNC(=O)NC1CCCCC1` returned a melting point of 162 to 164 °C.
The value for `NS(=O)(=O)c1ccc2c(c1)CCCN2` was 161 to 163 °C; that for `Clc1nc(CN2CCCCC2)nc2scc(-c3cccs3)c12` was 89 to 91 °C; that for `OCc1cnc(-c2ccccc2)[nH]1` was 154 to 156 °C.
To `O=C(O)CNC(=O)c1c(F)cccc1Cl` belongs 197 to 199 °C.
For `NC(=O)c1cccnc1S`, the melting point is 297 to 299 °C.
`Cc1ccsc1C1CC1C(=O)O` (stereo not given) came in with a melting point of 58 to 60 °C.
To `Cc1cc(C)c(S(=O)(=O)Nc2cccc(C(F)(F)F)c2)c(C)c1` belongs 88 to 90 °C; to `O=C(O)c1cnn(-c2ncccc2Cl)c1C(F)(F)C(F)(F)F`, 141 to 143 °C; to `Cc1cc(C#N)ccc1O`, 89 to 91 °C.
To `Nc1cc(N2CCOCC2)c(F)cc1[N+](=O)[O-]` belongs 185 to 187 °C; to `O=[N+]([O-])c1cc(S(=O)(=O)C(F)(F)F)ccc1Cl`, 57 to 59 °C.
To `CS(=O)(=O)Nc1ccc(N)c(Cl)c1` belongs 129 to 131 °C.
The compound `O=c1ccccn1CCBr` had a melting point of 126 to 128 °C.
The value for `CN(C)S(=O)(=O)c1ccc(S(=O)(=O)Cl)c([N+](=O)[O-])c1` was 153 to 155 °C; that for `CCN1C(=O)C(=O)c2ccc(Br)cc21` was 118 to 120 °C.
With `O=C(O)c1cc(F)cc(S(=O)(=O)Cl)c1`, the melting point was 136 to 138 °C.
The value for `COc1ccc(OCc2cc(C(=O)O)c(C)o2)cc1` was 123 to 133 °C; that for `O=C(O)CSCC(=O)c1ccc(Cl)cc1` was 81 to 83 °C; that for `O=C(O)c1nn(-c2cccc(F)c2)ccc1=O` was 219 to 221 °C.
The compound `Nc1ncc(CCC(=O)O)s1` returned a melting point of 195 to 197 °C.
Regarding `COC(=O)CC1c2ccccc2CCN1S(C)(=O)=O` (stereo not given), the melting point was in the range of 103 to 105 °C.
The value for `N#Cc1nc(-c2ccccc2)oc1NN` was 209 to 211 °C.
For `O=C(O)CCCNC(=O)c1ccc(F)cc1`, the melting point is 93 to 95 °C.
To `CC(=O)c1cc(S(N)(=O)=O)ccc1C` belongs 124 to 126 °C; to `Cc1c(C(=O)O)cc(Br)cc1S(N)(=O)=O`, 213 to 215 °C.
As for `Cc1sc(C(N)=O)cc1S(=O)(=O)Cl`, the melting point fell in the range of 122 to 124 °C.
The value for `COC(=O)CCCNc1nc2ccccc2s1` was 114 to 116 °C.
As for `O=C(O)Cn1nccn1`, the melting point lay in the range of 129 to 131 °C.
The value for `Cn1cc(C(=O)O)c(-c2cccnc2)n1` was 201 to 203 °C; that for `COc1cccc(C(=O)CC#N)c1` was 84 to 86 °C.
The value for `Cc1cc(C(=O)O)cc(S(=O)(=O)Cl)c1C` was 171 to 173 °C; that for `Cc1nn(CC(=O)O)c(C)c1/C=N/O` was 203 to 205 °C; that for `O=[N+]([O-])c1ccc(OCC(F)(F)F)nc1` was 41 to 43 °C.
With `Cc1ccc(-n2cc(S(=O)(=O)Cl)cn2)cc1S(=O)(=O)Cl`, the melting point is 114 to 116 °C.
`O=C(c1ccccc1)c1cc(Br)ccc1F` displayed a melting point of 67 to 69 °C.
`O=Cc1cccc(Cl)c1O` displayed a melting point of 52 to 54 °C.
The value for `Cc1nn(C)cc1C(=O)O` was 190 to 192 °C; that for `Oc1ccccc1-c1nc(CCl)no1` was 76 to 78 °C.
To `COc1cc(Br)cc(OC)c1O` belongs 99 to 101 °C.
Compound `Nc1ccc(N2CCCC2)cc1C(=O)O` came in with a melting point of 148 to 150 °C.
To `CC(C)(C)Nc1ccc(C(=O)O)cc1S(=O)(=O)NC(C)(C)C` belongs 243 to 245 °C; to `Clc1cc(N2CCNCC2)ncn1`, 100 to 102 °C.
The value for `O=C(CCl)NOCc1ccccc1` was 92 to 94 °C.
`CSc1ccc(C(=O)CCl)cc1NC(C)=O`: the melting point fell in the range of 98 to 102 °C.
The compound `CSCc1cc(C(=O)O)ccc1F` gave a melting point of 119 to 121 °C.
The value for `Cc1nn(-c2ccc(F)cc2)c(C)c1C=O` was 128 to 130 °C; that for `CC(Oc1ccccc1F)C(=O)NN` (stereo not given) was 64 to 66 °C.
Consider `CCN1C(=O)CC(=O)NC1=O`, for which the melting point is 118 to 120 °C.
Take `c1n[nH]c2c1CCNC2`: the melting point lay within 134 to 136 °C.
As for `O=C(O)c1c[nH]cc1-c1ccc(F)cc1`, the melting point lay within 199 to 201 °C.
For `CN1C(=O)CCC(C(N)=O)C1c1ccccc1` (stereo not given), the melting point was 222 to 224 °C.
Consider `CC(C(=O)Nc1ccc(N)cc1)n1cncn1` (stereo not given), for which the melting point is 202 to 204 °C.
The value for `COc1ncnc(N)c1C=O` was 197 to 199 °C; that for `FC(F)(F)c1ccccc1Nc1nnc(S)s1` was 197 to 199 °C.
To `Nc1ccccc1OCCN1CC(=O)Nc2ccccc21` belongs 147 to 149 °C.
The value for `Nc1ccc(-c2nnc3n2CCCC3)cc1` was 227 to 229 °C.
Regarding `Cc1ccc(-c2nnc(N)s2)c(C)c1`, the melting point was 180 to 182 °C.
Turning to `Nc1cc(F)c(-n2ccnc2)c(F)c1`, the melting point lay in the range of 159 to 161 °C.
As to `CN(C)S(=O)(=O)Nc1ccccc1Br`, the melting point lay within 78 to 80 °C.
In the case of `CNc1ccc(-c2ccccc2)nn1`, the melting point lay within 157 to 159 °C.
Regarding `O=c1[nH]cnc2c1cnn2-c1ccc(F)cc1`, the melting point was 243 to 246 °C.
For `CC(=O)N1CCN(S(=O)(=O)c2cccc(C(=O)O)c2)CC1`, the melting point was 258 to 262 °C.
The compound `O=C(O)c1cnn(-c2ncccc2Cl)c1C(F)(F)F` showed a melting point of 149 to 151 °C.
Compound `OCc1c(Cl)nc2sccn12` displayed a melting point of 174 to 176 °C.
To `O=C(CCl)NCc1ccc(Cl)cc1` belongs 107 to 109 °C.
As to `Nc1cc(Br)ccc1S(N)(=O)=O`, the melting point was in the range of 142 to 144 °C.
To `CN(CCCC(=O)O)S(=O)(=O)c1ccc(F)cc1` belongs 74 to 76 °C; to `NS(=O)(=O)c1ccccc1Cn1ccnc1`, 149 to 151 °C; to `NC(=O)CCCO`, 42 to 44 °C.
To `Cc1n[nH]c(C)c1C(C)CC(=O)O` (stereo not given) belongs 195 to 197 °C.
To `CC(C)(C)OC(=O)NC1CCCC1CN` (stereo not given) belongs 99 to 101 °C; to `Brc1ccc2c(c1)c1cc(Br)ccc1n2CC1CO1` (stereo not given), 142 to 144 °C; to `Cc1[nH]c2ccnn2c(=O)c1CC(=O)O`, 293 to 295 °C.
Regarding `O=C(O)C1CCN(C(=O)c2ccccn2)CC1`, the melting point was in the range of 146 to 148 °C.
`CC(C)S(=O)(=O)c1ccc(CC(=O)O)cc1`: the melting point was 146 to 148 °C.
To `[N-]=[N+]=Nc1ccc(Cl)cc1Cl` belongs 52 to 54 °C; to `COc1ccc(C=O)cc1OCc1cccnc1`, 84 to 86 °C.
To `COc1ccccc1C1CC1C(=O)O` (stereo not given) belongs 137 to 139 °C; to `CC(C)(C)OC(=O)N1CCCC(C)(C(=O)O)C1` (stereo not given), 117 to 119 °C.
The value for `Cn1c(CC#N)nc2ccccc21` was 129 to 131 °C; that for `Cc1ccc(O)c(-c2nc3ccccc3[nH]2)c1` was 259 to 261 °C; that for `COc1ccc(C2C(C(=O)O)CC(=O)N2C2CC2)cc1` (stereo not given) was 187 to 189 °C.
Turning to `O=C(O)Cc1coc(-c2ccc(F)cc2)n1`, the melting point is 166 to 168 °C.
In turn, `CN(CCO)C1(CN)CCCCC1` gave a melting point of 73 to 75 °C.
As for `NC1=C(c2nc3ccccc3[nH]2)C(=O)CN1N`, the melting point fell in the range of 296 to 300 °C.
Take `Cc1c(C(=O)O)nnn1-c1ccc(Cl)cc1F`: the melting point is 164 to 166 °C.
To `O=C(CCl)Nc1ncc(Cc2ccc(F)cc2)s1` belongs 149 to 151 °C; to `N#CCOc1ccc(CC(=O)O)cc1`, 111 to 113 °C; to `CC(C)(C)OC(=O)NC1CCCC(C(=O)O)C1` (stereo not given), 126 to 128 °C.
Compound `CCOC(=O)/C(C#N)=C/Nc1ccc(OC)cc1OC` gave a melting point of 153 to 155 °C.
To `OCc1ccc(F)cc1Br` belongs 69 to 71 °C; to `Cn1cc(CCC(=O)O)c2ccccc21`, 123 to 125 °C; to `Cc1cccc(-c2nn(-c3ccccc3)cc2C(=O)O)c1`, 146 to 148 °C.
The value for `O=S1(=O)CCN(S(=O)(=O)Cl)CC1` was 177 to 179 °C; that for `NC(=S)C1CC1` was 112 to 114 °C; that for `Cc1ccc(N)cc1S(=O)(=O)N(C)C` was 80 to 84 °C.
To `COC(C)C(N)=NO` (stereo not given) belongs 118 to 120 °C.
For the compound `Nc1cccc(S(=O)(=O)C2CCCC2)c1`, the melting point is 117 to 119 °C.
`O=C(O)CSc1nnc(-c2cccs2)n1C1CC1`: the melting point was in the range of 229 to 231 °C.
To `O=C(O)c1ccccc1NS(=O)(=O)c1ccc(Cl)c([N+](=O)[O-])c1` belongs 211 to 213 °C.
To `N#CCc1ccc(OCCBr)cc1` belongs 52 to 54 °C.
In the case of `N#CC(Cl)c1c(F)cccc1Cl` (stereo not given), the melting point fell in the range of 49 to 51 °C.
Turning to `CN(C)C(=O)c1ccc(S(N)(=O)=O)cc1`, the melting point was 206 to 208 °C.
Regarding `Cc1ccc(-c2nn(-c3ccccc3Cl)cc2C(=O)O)cc1`, the melting point was 257 to 259 °C.
To `O=S(=O)(Cl)c1cncc(F)c1` belongs 35 to 37 °C; to `O[C@@H]1CCNC1`, 15 to 17 °C.
The value for `Fc1ccc(NCc2cccnc2)c(F)c1` was 87 to 89 °C.
The value for `CC(=O)N1CCCc2cc(S(=O)(=O)Cl)ccc21` was 127 to 129 °C; that for `CC(=O)Nc1ccc(Oc2nc3ccccc3o2)cc1` was 164 to 166 °C; that for `CC(O)CNC(=O)c1cccc(O)c1` (stereo not given) was 116 to 118 °C.
